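1) Cells in 96-well plates. 2) Compound, 48 h, 5 concentrations. 3) Linear interpolation between surrounding doses. 4) Unreached endpoint = highest concentration. The concentration for 50% growth inhibition is given as GI50. At the TGI there is no net growth.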
What was measured:
Experiment in all cases: NCI-60 cell line screen, 48 h
786-0 renal = tested on: 786-0 renal
DU-145 prostate = tested on: DU-145 prostate
NCI-H23 lung = tested on: NCI-H23 lung
NCI/ADR-RES ovarian = tested on: NCI/ADR-RES ovarian
OVCAR-3 ovarian = tested on: OVCAR-3 ovarian
OVCAR-4 ovarian = tested on: OVCAR-4 ovarian
SK-MEL-28 melanoma = tested on: SK-MEL-28 melanoma
SK-OV-3 ovarian = tested on: SK-OV-3 ovarian
UACC-62 melanoma = tested on: UACC-62 melanoma
OVCAR-8 ovarian = tested on: OVCAR-8 ovarian

OC(c1ccccc1)c1c(-c2ccccc2)oc(-c2ccccc2)c1C(O)c1ccccc1 (stereo not drawn)
TGI (786-0 renal): 21 µM
TGI (DU-145 prostate): 28.3 µM
TGI (NCI-H23 lung): 23.3 µM
TGI (NCI/ADR-RES ovarian): 24.9 µM
TGI (OVCAR-3 ovarian): 18.7 µM
TGI (OVCAR-4 ovarian): 7.99 µM
TGI (SK-MEL-28 melanoma): 27.9 µM
TGI (SK-OV-3 ovarian): 30.1 µM
TGI (UACC-62 melanoma): 25.6 µM

Brc1ccc(Br)nn1
GI50 (786-0 renal): 2.11 µM
TGI (786-0 renal): 4.75 µM
GI50 (DU-145 prostate): 3.73 µM
TGI (DU-145 prostate): 13.4 µM
GI50 (NCI-H23 lung): 1380 nM
TGI (NCI-H23 lung): 4.23 µM
GI50 (NCI/ADR-RES ovarian): 2 µM
TGI (NCI/ADR-RES ovarian): 5.78 µM
GI50 (OVCAR-4 ovarian): 1290 nM
TGI (OVCAR-4 ovarian): 2.77 µM
GI50 (OVCAR-8 ovarian): 2.4 µM
TGI (OVCAR-8 ovarian): 9.26 µM
GI50 (SK-MEL-28 melanoma): 1420 nM
TGI (SK-MEL-28 melanoma): 2.76 µM
GI50 (SK-OV-3 ovarian): 8.64 µM
TGI (SK-OV-3 ovarian): 20.8 µM
GI50 (UACC-62 melanoma): 1.88 µM
TGI (UACC-62 melanoma): 6.24 µM

C[N+]1=c2c3cccc4cccc(c(=O)n2CCC1)c43
TGI (786-0 renal): > 100 µM
TGI (NCI-H23 lung): 39.1 µM
TGI (OVCAR-3 ovarian): 55.1 µM
TGI (OVCAR-4 ovarian): 42.9 µM
TGI (OVCAR-8 ovarian): 39.9 µM
TGI (SK-MEL-28 melanoma): 39.6 µM
TGI (SK-OV-3 ovarian): 80.1 µM
TGI (UACC-62 melanoma): 34.1 µM

COC(=O)C1=Cc2c(OC)cc(OC)c(OC)c2[C@H](c2cc(OC)c(OC)cc2OC)C1C(=O)OC (stereo partly drawn)
TGI (786-0 renal): > 100 µM
TGI (NCI-H23 lung): > 100 µM
TGI (OVCAR-3 ovarian): > 100 µM
TGI (OVCAR-4 ovarian): > 100 µM
TGI (OVCAR-8 ovarian): > 100 µM
TGI (SK-MEL-28 melanoma): > 100 µM
TGI (SK-OV-3 ovarian): > 100 µM
TGI (UACC-62 melanoma): > 100 µM

CC12C(=O)N(CCN)C(=O)C1C1c3ccccc3C2c2ccccc21 (stereo not drawn)
TGI (786-0 renal): > 100 µM
TGI (NCI-H23 lung): > 100 µM
TGI (OVCAR-3 ovarian): > 100 µM
TGI (OVCAR-4 ovarian): > 100 µM
TGI (OVCAR-8 ovarian): > 100 µM
TGI (SK-MEL-28 melanoma): > 100 µM
TGI (SK-OV-3 ovarian): > 100 µM
TGI (UACC-62 melanoma): > 100 µM

COc1cccc(Nc2nccc(Nc3ccc4[nH]ncc4c3)n2)c1
GI50 (786-0 renal): 1.46 µM
TGI (786-0 renal): 2.91 µM
GI50 (DU-145 prostate): 1.3 µM
TGI (DU-145 prostate): 2.85 µM
GI50 (NCI-H23 lung): 1690 nM
TGI (NCI-H23 lung): 3.83 µM
GI50 (NCI/ADR-RES ovarian): 1.54 µM
TGI (NCI/ADR-RES ovarian): 4.36 µM
GI50 (OVCAR-3 ovarian): 1.58 µM
TGI (OVCAR-3 ovarian): 4.07 µM
GI50 (OVCAR-4 ovarian): 1460 nM
TGI (OVCAR-4 ovarian): 4.03 µM
GI50 (OVCAR-8 ovarian): 1.67 µM
TGI (OVCAR-8 ovarian): 4.39 µM
GI50 (SK-OV-3 ovarian): 2.31 µM
TGI (SK-OV-3 ovarian): 5.4 µM

O=C1CCC(=O)C(C(=O)CCC(=O)Nc2cccc(Cl)c2)C1 (stereo not drawn)
TGI (786-0 renal): > 100 µM
TGI (NCI-H23 lung): > 100 µM
TGI (OVCAR-3 ovarian): > 100 µM
TGI (OVCAR-8 ovarian): > 100 µM
TGI (SK-OV-3 ovarian): > 100 µM
TGI (UACC-62 melanoma): > 100 µM

Cc1sc(/N=C2/NC(=O)CS2)nc1-c1nc(/N=C2/NC(=O)CS2)sc1C
GI50 (786-0 renal): > 50 µM
TGI (786-0 renal): > 50 µM
GI50 (DU-145 prostate): > 50 µM
TGI (DU-145 prostate): > 50 µM
GI50 (NCI-H23 lung): > 50000 nM
TGI (NCI-H23 lung): > 50 µM
GI50 (NCI/ADR-RES ovarian): 21.2 µM
TGI (NCI/ADR-RES ovarian): > 50 µM
GI50 (OVCAR-3 ovarian): > 50 µM
TGI (OVCAR-3 ovarian): > 50 µM
GI50 (OVCAR-8 ovarian): > 50 µM
TGI (OVCAR-8 ovarian): > 50 µM
GI50 (SK-MEL-28 melanoma): 26700 nM
TGI (SK-MEL-28 melanoma): > 50 µM
GI50 (UACC-62 melanoma): 15.9 µM
TGI (UACC-62 melanoma): > 50 µM

CS[C@@]1(C(=O)Nc2ccc3[nH]nc(-c4ccc(OC(C)C)nc4)c3c2)CCN(CC(=O)N2CC=C(c3ccc(-c4ncn(C)n4)cc3)CC2)C1
GI50 (786-0 renal): 5.27 µM
TGI (786-0 renal): > 100 µM
GI50 (DU-145 prostate): > 100 µM
TGI (DU-145 prostate): > 100 µM
GI50 (NCI-H23 lung): 160 nM
TGI (NCI-H23 lung): > 100 µM
GI50 (NCI/ADR-RES ovarian): 12.6 µM
TGI (NCI/ADR-RES ovarian): > 100 µM
GI50 (OVCAR-3 ovarian): > 100 µM
TGI (OVCAR-3 ovarian): > 100 µM
GI50 (OVCAR-8 ovarian): 9.31 µM
TGI (OVCAR-8 ovarian): > 100 µM
GI50 (SK-MEL-28 melanoma): 29.3 nM
TGI (SK-MEL-28 melanoma): 0.441 µM
GI50 (SK-OV-3 ovarian): > 100 µM
TGI (SK-OV-3 ovarian): > 100 µM

CC12OC3CC(O1)C1(C=O)C4CCC5(C)C(c6ccc(=O)oc6)CCC5(O)C4CCC1(C3)O2 (stereo not drawn)
TGI (786-0 renal): 0.246 µM
TGI (OVCAR-3 ovarian): 0.384 µM
TGI (OVCAR-4 ovarian): 0.308 µM
TGI (OVCAR-8 ovarian): 1.2 µM
TGI (SK-MEL-28 melanoma): 1.49 µM
TGI (SK-OV-3 ovarian): 0.513 µM
TGI (UACC-62 melanoma): 0.781 µM

CC(C)NC(=O)O/N=C1\CCC2[C@@H]3CC=C4C[C@@H](OC(=O)NC(C)C)CC[C@]4(C)C3CC[C@]12C (stereo partly drawn)
TGI (786-0 renal): 4.01 µM
TGI (NCI-H23 lung): 3.79 µM
TGI (OVCAR-3 ovarian): 3.6 µM
TGI (OVCAR-4 ovarian): 3.5 µM
TGI (OVCAR-8 ovarian): 3.75 µM
TGI (SK-MEL-28 melanoma): 3.26 µM
TGI (SK-OV-3 ovarian): 13.5 µM
TGI (UACC-62 melanoma): 3.18 µM

CC1=NN(c2ccccc2)C(=O)C1N=Nc1ccc(Br)c(C)c1 (stereo not drawn)
TGI (786-0 renal): > 100 µM
TGI (NCI-H23 lung): > 100 µM
TGI (OVCAR-3 ovarian): > 100 µM
TGI (OVCAR-4 ovarian): > 100 µM
TGI (OVCAR-8 ovarian): > 100 µM
TGI (SK-MEL-28 melanoma): > 100 µM
TGI (SK-OV-3 ovarian): > 100 µM
TGI (UACC-62 melanoma): > 100 µM

CCc1oc2ccc(OC)c3c2c1C=CC=C3
TGI (786-0 renal): > 100 µM
TGI (NCI-H23 lung): > 100 µM
TGI (OVCAR-3 ovarian): > 100 µM
TGI (OVCAR-4 ovarian): > 100 µM
TGI (OVCAR-8 ovarian): > 100 µM
TGI (SK-MEL-28 melanoma): > 100 µM
TGI (SK-OV-3 ovarian): > 100 µM
TGI (UACC-62 melanoma): > 100 µM

OC1C2C=CCC1CCC2 (stereo not drawn)
TGI (786-0 renal): > 100 µM
TGI (NCI-H23 lung): > 100 µM
TGI (OVCAR-3 ovarian): > 100 µM
TGI (OVCAR-4 ovarian): > 100 µM
TGI (OVCAR-8 ovarian): > 100 µM
TGI (SK-MEL-28 melanoma): > 100 µM
TGI (SK-OV-3 ovarian): > 100 µM
TGI (UACC-62 melanoma): > 100 µM

CCC[CH2][Sn]1([CH2]CCC)[O]C(=O)c2cc(C)ccc2[O]1
GI50 (786-0 renal): 0.215 µM
TGI (786-0 renal): 0.844 µM
GI50 (NCI-H23 lung): 332 nM
TGI (NCI-H23 lung): 1.29 µM
GI50 (OVCAR-3 ovarian): 0.614 µM
TGI (OVCAR-3 ovarian): 1.91 µM
GI50 (OVCAR-4 ovarian): 707 nM
TGI (OVCAR-4 ovarian): 2.06 µM
GI50 (OVCAR-8 ovarian): 0.725 µM
TGI (OVCAR-8 ovarian): 2.05 µM
GI50 (SK-MEL-28 melanoma): 682 nM
TGI (SK-MEL-28 melanoma): 2.03 µM
GI50 (SK-OV-3 ovarian): 1.58 µM
TGI (SK-OV-3 ovarian): 2.99 µM
GI50 (UACC-62 melanoma): 0.465 µM
TGI (UACC-62 melanoma): 1.56 µM

CC[O-].CC[O-].O=C([CH-]C(=O)c1ccccc1)c1ccccc1.O=C([CH-]C(=O)c1ccccc1)c1ccccc1.[Ti+4]
GI50 (786-0 renal): > 100 µM
TGI (786-0 renal): > 100 µM
GI50 (NCI-H23 lung): > 100000 nM
TGI (NCI-H23 lung): > 100 µM
GI50 (OVCAR-3 ovarian): > 100 µM
TGI (OVCAR-3 ovarian): > 100 µM
GI50 (OVCAR-4 ovarian): > 100000 nM
TGI (OVCAR-4 ovarian): > 100 µM
GI50 (OVCAR-8 ovarian): 79.4 µM
TGI (OVCAR-8 ovarian): > 100 µM
GI50 (SK-MEL-28 melanoma): > 100000 nM
TGI (SK-MEL-28 melanoma): > 100 µM
GI50 (SK-OV-3 ovarian): > 100 µM
TGI (SK-OV-3 ovarian): > 100 µM
GI50 (UACC-62 melanoma): > 100 µM
TGI (UACC-62 melanoma): > 100 µM

Cc1cc2c(cc1C)[n+]([O-])c(-c1c(Cl)cccc1Cl)c(N)[n+]2[O-]
TGI (786-0 renal): > 100 µM
TGI (NCI-H23 lung): 75.8 µM
TGI (OVCAR-3 ovarian): 99.5 µM
TGI (OVCAR-4 ovarian): > 100 µM
TGI (OVCAR-8 ovarian): > 100 µM
TGI (SK-MEL-28 melanoma): 89.6 µM
TGI (SK-OV-3 ovarian): > 100 µM
TGI (UACC-62 melanoma): > 100 µM

CCOC(=O)C(Cc1ccc(OC)cc1)C(=O)OCC
GI50 (786-0 renal): 6.19 µM
TGI (786-0 renal): 18.7 µM
GI50 (DU-145 prostate): 2.65 µM
TGI (DU-145 prostate): 7.71 µM
GI50 (NCI-H23 lung): 3630 nM
TGI (NCI-H23 lung): 14.9 µM
GI50 (NCI/ADR-RES ovarian): 3.77 µM
TGI (NCI/ADR-RES ovarian): 19 µM
GI50 (OVCAR-3 ovarian): 3.59 µM
TGI (OVCAR-3 ovarian): 11.6 µM
GI50 (OVCAR-4 ovarian): 6230 nM
TGI (OVCAR-4 ovarian): 26.5 µM
GI50 (OVCAR-8 ovarian): 5.24 µM
TGI (OVCAR-8 ovarian): 32.5 µM
GI50 (SK-OV-3 ovarian): 10.7 µM
TGI (SK-OV-3 ovarian): 55.8 µM
GI50 (UACC-62 melanoma): 4.66 µM
TGI (UACC-62 melanoma): 17.3 µM

Cc1cc(C)c2[s+]snc2c1
TGI (786-0 renal): > 100 µM
TGI (NCI-H23 lung): > 100 µM
TGI (OVCAR-3 ovarian): > 100 µM
TGI (OVCAR-4 ovarian): > 100 µM
TGI (OVCAR-8 ovarian): > 100 µM
TGI (SK-MEL-28 melanoma): > 100 µM
TGI (SK-OV-3 ovarian): > 100 µM
TGI (UACC-62 melanoma): > 100 µM

C[C@]12CCCC(=O)C1C[C@H](C(=O)O)CC2 (stereo partly drawn)
TGI (786-0 renal): > 100 µM
TGI (NCI-H23 lung): > 100 µM
TGI (OVCAR-3 ovarian): > 100 µM
TGI (OVCAR-4 ovarian): > 100 µM
TGI (OVCAR-8 ovarian): > 100 µM
TGI (SK-MEL-28 melanoma): > 100 µM
TGI (SK-OV-3 ovarian): > 100 µM
TGI (UACC-62 melanoma): > 100 µM

From PubChem BioAssay (NCI)
